Measurements as given in patent EP0750618B1, “OXAZOLIDINONE DERIVATIVES AND PHARMACEUTICAL COMPOSITIONS CONTAINING THEM” (priority 1994, dated 1995).
≈ marks a conversion by molar mass, not a printed value. Read-outs that look alike come from different tables or passages of the source.

Legend:
Experiment in all cases: MIC test, standard agar dilution method
[1] = tested on: Staphylococcus aureus
[2] = tested on: Streptococcus pyogenes (UC 152); details: UC152, read-out: Minimum Inhibitory Concentrations (MIC) S. pyogenes
[3] = tested on: Staphylococcus epidermidis (UC 12084); assay type: cell-based; details: UC12084, incubated overnight at 35°C, read-out: Minimum Inhibitory Concentrations (MIC) S. enidermidis
[4] = UC9213, read-out: Minimum Inhibitory Concentrations (MIC) S. aureus

| Structure (SMILES) | MIC [1, 4] [µg/mL] | MIC [2] [µg/mL] | MIC [3] [µg/mL] | MIC ([1]; UC9218, read-out: Minimum Inhibitory Concentrations (MIC) S. aureus) [µg/mL] |
| --- | --- | --- | --- | --- |
| CC(=O)NC[C@H]1CN(c2ccc(N3CCC4(CC3)OCCO4)c(F)c2)C(=O)O1 [compound 28, (S)-N-{3-[4-(1,4-dioxa-8-aza-sprio[4.5]dec-8-yl)-3-fluoro-phenyl]-2-oxo-oxazolidin-5-ylmethyl}-acetamide] | 8 (≈ 20.3 µM) | 4 (≈ 10.2 µM) | 2 (≈ 5.08 µM) |  |
| CN[C@H](CC(C)C)C(=O)N[C@H]1C(=O)N[C@@H](CC(N)=O)C(=O)N[C@H]2C(=O)N[C@H]3C(=O)N[C@H](C(=O)N[C@H](C(=O)O)c4cc(O)cc(O)c4-c4cc3ccc4O)[C@H](O)c3ccc(c(Cl)c3)Oc3cc2cc(c3O[C@@H]2O[C@H](CO)[C@@H](O)[C@H](O)[C@H]2O[C@H]2C[C@](C)(N)[C@H](O)[C@H](C)O2)Oc2ccc(cc2Cl)[C@H]1O [Vancomycin, reference compound] | 1 (≈ 0.69 µM) | 0.5 (≈ 0.345 µM) | 2 (≈ 1.38 µM) |  |
| COCOCC1COC2(CCN(c3ccc(N4C[C@H](CNC(C)=O)OC4=O)cc3F)CC2)O1 (stereo partly drawn) [compound 57, (S)-N-(3-{3-fluoro-4-[2-(methoxymethoxy-methyl)-1,4-dioxa-8-aza-spiro[4.5]dec-8-yl]-phenyl}-2-oxo-oxazolidin-5-ylmethyl)-acetamide] | 16 (≈ 34.2 µM) | 8 (≈ 17.1 µM) | 4 (≈ 8.56 µM) |  |
| COCCNC1CCN(c2ccc(N3C[C@H](CNC(C)=O)OC3=O)cc2F)CC1 [compound 64, (S)-N-(3-{3-fluoro-4-[4-(2-methoxy-ethylamino)-piperidin-1-yl]-phenyl}-2-oxo-oxazolidin-5-ylmethyl)-acetamide] | 32 (≈ 78.3 µM) | 1 (≈ 2.45 µM) | 2 (≈ 4.9 µM) |  |
| CC(=O)NC[C@H]1CN(c2ccc(N3CCC4(CC3)OCC(CO)O4)c(F)c2)C(=O)O1 (stereo partly drawn) [Compound No. 52, (S)-N-{3-[3-fluoro-4-(2-hydroxymethyl-1,4-dioxa-8-aza-spiro[4.5]dec-8-yl)-phenyl]-2-oxo-oxazolidin-5-ylmethyl}-acetamide] | 16 (≈ 37.8 µM) | 4 (≈ 9.45 µM) | 2 (≈ 4.72 µM) |  |
| COCOCCON=C1CCN(c2ccc(N3C[C@H](CNC(C)=O)OC3=O)cc2F)CC1 [compound 53, (S)-N-(3-{3-fluoro-4-[4-(2-methoxymethoxy-ethoxyimino)-piperidin-1-yl]-phenyl}-2-oxo-oxazolidin-5-ylmethyl)-acetamide] | 16 (≈ 35.4 µM) | 4 (≈ 8.84 µM) | 2 (≈ 4.42 µM) |  |
| COCON=C1CCN(c2ccc(N3C[C@H](CNC(C)=O)OC3=O)cc2F)CC1 [compound 60, (S)-N-{3-[3-fluoro-4-(4-methoxymethoxyimino-piperidin-1-yl)-phenyl]-2-oxo-oxazolidin-5-ylmethyl}-acetamide] | 8 (≈ 19.6 µM) | 2 (≈ 4.9 µM) | 2 (≈ 4.9 µM) |  |
| CC(=O)NC[C@H]1CN(c2ccc(N3CCCCC3)c(F)c2)C(=O)O1 [Compound No. 2, (S)-N-[3-(3-fluoro-4-piperidin-1-yl-phenyl)-2-oxo-oxazolidin-5-ylmethyl]-acetamide] |  | 4 (≈ 11.9 µM) | 1 (≈ 2.98 µM) | 8 (≈ 23.9 µM) |
| CC(=O)CC1CCN(c2ccc(N3C[C@H](CNC(C)=O)OC3=O)cc2F)CC1 [compound 33, (S)-N-(3-{3-fluoro-4-[4-(2-oxo-propyl)-piperidin-1-yl]-phenyl}-2-oxo-oxazolidin-5-ylmethyl)-acetamide] | 8 (≈ 20.4 µM) | 2 (≈ 5.11 µM) | 2 (≈ 5.11 µM) |  |
| CCOC(=O)CC(=O)NN=C1CCN(c2ccc(N3C[C@H](CNC(C)=O)OC3=O)cc2F)CC1 [compound 56, (S)-(1-{4-[5-(acetylamino-methyl)-2-oxo-oxazolidin-3-yl]-2-fluorophenyl}-piperidin-4-ylidenehydrazinocarbonyl)-acetic acid ethyl ester] | 4 (≈ 8.38 µM) | 2 (≈ 4.19 µM) | 1 (≈ 2.09 µM) |  |
| CON=C1CCN(c2ccc(N3C[C@H](CNC(C)=O)OC3=O)cc2F)CC1 [Compound No. 29, (S)-N-{3-[3-fluoro-4-(4-methoxyimino-piperidin-1-yl)-phenyl]-2-oxo-oxazolidin-5-ylmethyl}-acetamide] | 4 (≈ 10.6 µM) | 4 (≈ 10.6 µM) | 1 (≈ 2.64 µM) |  |
| CC(=O)NC[C@H]1CN(c2ccc(N3CCC(NC(=O)OCOC(C)=O)CC3)c(F)c2)C(=O)O1 [compound 65, (S)-N-(3-{4-[4-(acetoxy-methoxy-carbonylamino)-piperidin-1-yl]-3-fluorophenyl}-2-oxo-oxazolidin-5-ylmethyl)-acetamide] | 8 (≈ 17.2 µM) | 0.5 (≈ 1.07 µM) | 1 (≈ 2.14 µM) |  |
| CC(=O)NC[C@H]1CN(c2ccc(N3CCC(=NOC(=O)COCc4ccccc4)CC3)c(F)c2)C(=O)O1 [compound 45, (S)-N-{3-[3-fluoro-4-(4-benzyloxyacetoxyimino-piperidin-1-yl)-phenyl]-2-oxo-oxazolidin-5-ylmethyl}-acetamide] | 2 (≈ 3.9 µM) | 2 (≈ 3.9 µM) | 0.5 (≈ 0.976 µM) |  |
| CC(=O)NC[C@H]1CN(c2ccc(N3CCC(=NNC(N)=O)CC3)c(F)c2)C(=O)O1 [compound 39, (S)-N-{3-[3-fluoro-4-(4-semicarbazono-piperidin-1-yl)-phenyl]-2-oxo-oxazolidin-5-ylmethyl}-acetamide] | 2 (≈ 4.92 µM) | 2 (≈ 4.92 µM) | 0.5 (≈ 1.23 µM) |  |
| CC(=O)NC[C@H]1CN(c2ccc(N3CCC(=NOCCO)CC3)c(F)c2)C(=O)O1 [compound 48, (S)-N-(3-{3-fluoro-4-[4-(2-hydroxy-ethoxyimino)-piperidin-1-yl]-phenyl}-2-oxo-oxazolidin-5-ylmethyl)-acetamide] | 8 (≈ 19.6 µM) | 2 (≈ 4.9 µM) | 1 (≈ 2.45 µM) |  |
| CC(=O)NC[C@H]1CN(c2ccc(N3CCC(=NN4CCN(CCO)CC4)CC3)c(F)c2)C(=O)O1 [compound 49, (S)-N-[3-(3-fluoro-4-{4-[4-(2-hydroxy-ethyl)-piperazin-1-ylimino]-piperidin-1-yl)-phenyl)-2-oxo-oxazolidin-5-ylmethyl]-acetamide] | 4 (≈ 8.39 µM) | 1 (≈ 2.1 µM) | 0.5 (≈ 1.05 µM) |  |
| CC(=O)NC[C@H]1CN(c2ccc(N3CCC(CO)CC3)c(F)c2)C(=O)O1 [Compound No. 4, (S)-N-{3-[3-fluoro-4-(4-hydroxymethyl-piperidin-1-yl)-phenyl]-2-oxo-oxazolidin-5-ylmethyl}-acetamide] | 8 (≈ 21.9 µM) | 2 (≈ 5.47 µM) | 2 (≈ 5.47 µM) |  |
| CC(=O)NC[C@H]1CN(c2ccc(N3CCC(C(C)=O)CC3)c(F)c2)C(=O)O1 [compound 36, (S)-N-{3-[4-(4-acetyl-piperidin-1-yl)-3-fluoro-phenyl]-2-oxo-oxazolidin-5-ylmethyl}-acetamide] | 4 (≈ 10.6 µM) | 2 (≈ 5.3 µM) | 1 (≈ 2.65 µM) |  |
| CONC1CCN(c2ccc(N3C[C@H](CNC(C)=O)OC3=O)cc2F)CC1 [Compound No. 59, (S)-N-{3-[3-fluoro-4-(4-methoxyamino-piperidin-1-yl)-phenyl]-2-oxo-oxazolidin-5-ylmethyl}-acetamide] | 4 (≈ 10.5 µM) | 4 (≈ 10.5 µM) | 2 (≈ 5.26 µM) |  |
| CC(=O)NC[C@H]1CN(c2ccc(N3CCC(=NOCC(O)CO)CC3)c(F)c2)C(=O)O1 (stereo partly drawn) [Compound No. 62, (S)-N-(3-{4-[4-(2,3-dihydroxy-propoxyimino)-piperidin-1-yl]-3-fluorophenyl}-2-oxo-oxazolidin-5-ylmethyl)-acetamide] | 8 (≈ 18.2 µM) | 2 (≈ 4.56 µM) | 1 (≈ 2.28 µM) |  |
| CC(=O)NC[C@H]1CN(c2ccc(N3CCC(NC(=O)CO)CC3)c(F)c2)C(=O)O1 [compound 10, (S)-N-(1-{4-[5-(acetylamino-methyl)-2-oxo-oxazolidin-3-yl]-2-fluoro-phenyl}-piperidin-4-yl)-2-hydroxy-acetamide] | 16 (≈ 39.2 µM) | 2 (≈ 4.9 µM) | 2 (≈ 4.9 µM) |  |
